Data set [1] in a line: Plasma pharmacokinetics of endoxifen after administration of the compositions. The data set is classed as in vivo. The conditions noted are these: for AUC(0-t): read-out: mean AUC24hr; for half-life: endoxifen released from a composition disclosed herein.
Data set [2] is described as follows: (Z)-Endoxifen solubility in dissolution media (pH 6.8 buffer with and without Polysorbate 80). Format: physicochemical. As for the experimental part: This example describes development of a dissolution assay to measure dissolution of endoxifen formulations. […] Polysorbate 80 (PS80), a nonionic surfactant, was added in varying concentrations to improve solubility and mimic an intestinal environment. Surfactants, such as polysorbate 80, create micelles in the medium that mimic the bile acid aggregates in the small intestine. These micelles facilitate the diffusion and transport of product into the medium.

For data set [3] the following is noted: cited from earlier work.

Read-outs that look alike come from different tables or passages of the source.

As usually defined, the AUC(0-inf) is total exposure, with the tail of the curve extrapolated. High values mean high exposure, low ones low exposure. Usually half-life stands for how long it takes for the measured level to halve.

Take `CC/C(=C(\c1ccc(O)cc1)c1ccc(OCCNC)cc1)c1ccccc1` [(Z)-endoxifen]: the AUC(0-t) fell in the range of 150 to 600 ng·h/mL in data set [1] (human, plasma, Day 1 of initial (first) dose, composition comprising 1 mg to 4 mg of (Z)-endoxifen) and 400 to 2500 ng·h/mL in data set [1] (human, plasma, Day 21, compositions comprising 1 mg to 4 mg of (Z)-endoxifen). In addition, the AUC(0-inf) in data set [1] (human, plasma, dosing range of 1 mg to 4 mg of (Z)-endoxifen) was in the range of 400 to 6000 ng·h/mL.
With `CC/C(=C(\c1ccc(O)cc1)c1ccc(OCCNC)cc1)c1ccccc1` [endoxifen, 4-hydroxy-N-desmethyl-tamoxifen], the “solubility as a function of pH” value in data set [2] is on record as “decreases as pH becomes less acidic”. Moreover, in data set [1] (daily administration of a composition), the “day by which steady state plasma levels are achieved” value was ≤ 7 days. In addition, the half-life in data set [1] (human, plasma, read-out: mean half-life) lay within 40 to 53 h; in data set [1] (human, plasma, read-out: terminal elimination half-life) it was 30 to 60 h.
In the case of `CC/C(=C(\c1ccccc1)c1ccc(OCCN(C)C)cc1)c1ccccc1` [tamoxifen, (Z)-2-[4-(1,2-diphenyl-1-butenyl)phenoxy]-N,N-dimethylethanamine], the Terminal elimination half-life in data set [3] (Jordan C. Steroids 2007) was 120 to 170 h. Also, the peak concentration time entry in data set [3] (post-dose) is “approximately 5 hours”. Further, the “Reported therapeutic levels of plasma tamoxifen” value in data set [3] (subjects dosed with 20 mg of oral tamoxifen (Lyon et al. 2012)) is ≥ 30 nM.

These data come from patent US20260151360A1, “ENDOXIFEN COMPOSITIONS AND METHODS OF USE THEREOF AND SYNTHESIS THEREOF” (Atossa Therapeutics, Inc., priority 2023, published 2026).
